Data set [1] deals with T1, strychnine-insensitive glycine site associated with the NMDA receptor/channel complex (Rattus norvegicus, UniProt P35439).
T1 construct: buffy coat rat cortical membrane preparation; from tissue; host or cells: rat cerebral cortex, buffy coat membranes
In words: 3H-glycine binding assay in cortical membranes. Conditions: for Hill slope (nH), displacement of 3H-glycine binding: mean ± S.E.M. On the procedure:
(§1) ^3 H-Glycine (^3 H-GLY), ^3 H-TCP and NMDA specific ^3 H-GLU binding assays were performed in a buffy coat rat cortical membrane preparation (Jones et al., 1989). The tissue was homogenized in a glass grinding vessel with a teflon pestle in ice-cold 0.32 M sucrose and centrifuged for 10 min at 1000×g. The resultant supernatant was decanted and recentrifuged at 20,000×g for 20 min. The pellet was resuspended in 20 volumes of ice-cold dH20 and centrifuged for 20 min at 8000×g. The supernatant and the buffy coat were then re-collected and recentrifuged at 48,000×g for 20 min. The pellet was resuspended in 20 volumes of ice-cold water and centrifuged for 20 min at 48,000×g, after which it was stored at -20° C. for not more than two weeks. On the day of the assay, the pellet was thawed, resuspended in 40 volumes of buffer, incubated at 37° C. for 20 min in the appropriate buffer, and centrifuged for 10 min at 48,000×g. The pellet was then resuspended in 40 volumes of buffer and recentrifuged at 48,000×g for 10 min. This step was repeated twice before the pellet finally resuspended in a buffer suitable for the particular binding assay. Protein concentrations were determined by the method described by Smith (1985).
C. ^3 H-Glycine Binding Assay
^3 H-glycine binding assays were initiated by addition of 100 μl aliquots of membrane homogenate (100-150 μg protein) to test tubes containing 20 nM ^3 H-glycine in the presence or absence of the test drug(s) dissolved in 50 mM Tris acetate or 50 mM Na-free HEPES buffer pH 7.5 for a final volume of 1 ml, followed by incubation for 30 min at 4° C. […] The filtration procedure and scintillation counting were performed as described above.
(§2) The Hill slopes (nH) and maximal displacement of radioligand binding were estimated by non-linear curve-fitting to a sigmoidal algorithm using the EBDA portion of the LIGAND data analysis software package for the IBM-PC (Elsevier). K1 values were obtained from the LIGAND analysis of the same data. KD and Bmax estimates were obtained by non-linear curve-fitting of the saturation isotherm using programs from the same software package (Munson and Rodbard, 1980). All data analysis was performed on each of 3-7 individual experiments performed in triplicate (7 concentrations) or duplicate (10 concentrations). Reported values are the mean ±S.E.M. of these analyses. For displacement experiments, these values were plotted with the sigmoid curve taken as the average of the sigmoidal fits of each individual experiment.
For orientation: Displacement assays read how much labelled ligand stays bound in the presence of the test substance.

The target in data set [2] is T2, NMDA receptor/channel complex (Rattus norvegicus, UniProt P35439).
T2 construct: buffy coat rat cortical membrane preparation; from tissue; host or cells: rat cerebral cortex, buffy coat membranes
In words: biochemical. Format: biochemical. The method, then: as §1, with “The” for “^3 H-Glycine (^3 H-GLY), ^3 H-TCP and NMDA specific ^3 H-GLU binding assays were performed in a buffy coat rat cortical membrane preparation (Jones et al., 1989). The”
D. ^3 H-TCP Binding Assay
The dissociative anesthetics ketamine and phencyclidine (PCP) selectively antagonize depolarizations produced by NMDA.
^3 H-TCP binding assays were initiated by addition of 100 μl aliquots of membrane homogenate (approximately 150 μg protein) to test tubes containing 5 nM ^3 H-TCP in the presence or absence of the test drug(s) dissolved in 10 mM HEPES buffer pH 7.5. The final volume in each tube was 1 ml, and tubes were incubated for 2 hr at 23° C. Non-specific binding was defined as that remaining in the presence of 30 μM PCP. The filtration procedure was used as described above except that the filters were presoaked for one hour in 0.03% polyethyleneimine (PEI) (Sigma) to reduce filter binding. Scintillation counting was performed as described above.
Previously washed rat cortical membranes were resuspended at approximately 0.1 mg protein/ml in the appropriate buffer (pH 7.4 at 23° C.), and 30 ml were placed in each of 3 or 4 150×25 mm polystyrene culture dishes on a rotating shaker. A 200 μL aliquot of a 10 mM solution of 7-chloro-4-hydroxy-2-quinoline carbonyl azide dissolved in DMSO was added and the solution was mixed for 10 min in the dark. Photolysis was accomplished by exposure of the reaction mixture to 366 nm long-wave ultraviolet light (Transilluminator, Fotodyne, Model 3-3000) at a distance of 5 cm for 10 min with continuous mixing.
as §2

The next data set has as its target NMDA recognition site. In words: NMDA-specific 3H-L-glutamate binding assay in cortical membranes. Details: species or system rat. On the procedure:
as §1, with “The pellet was then resuspended in 40 volumes of buffer and recentrifuged at 48,000×g for 10 min. This step was repeated twice before the pellet finally resuspended in a buffer suitable for the particular binding assay.” left out, “(1985). […]” for “(1985).”
For equilibrium saturation experiments, different concentrations of ^3 H-glutamate (diluted with unlabeled L-glutamate) ranging from 10 to 320 nM in the presence or absence of test drug(s) were examined. Non-specific binding was defined as that remaining in the presence of 300 μM NMDA and was determined at the lowest and the highest concentration of ^3 H-L-glutamate. […]

A further data set in a line: Solubility. Format: physicochemical. The method, then: (§3) Thus, in all experiments, 7-chloro-4-hydroxy-2-quinoline carbonyl azide was first dissolved at high concentrations (1-10 mM) in dimethylsulfoxide (DMSO) and then diluted in the appropriate physiological buffer. […] The appropriate DMSO control was performed at the same time, and no changes in the binding of radioligands were ever observed. This procedure, and all subsequent procedures where non-photolyzed material was desired, were performed under red light.

The test system of the next data set is NMDA receptor. In words: Photolabeling of cortical membranes followed by SDS polyacrylamide gel electrophoresis. It is filed as binding, rat. The settings on record: cortical membranes photolabeled, 366 nm; bands Rf 0.71 and 0.53. On the procedure: E. Photolabeling with 7-chloro-4-hydroxy-2-quinoline carbonyl azide
as §3
Previously washed rat cortical membranes were resuspended at approximately 0.1 mg protein/ml in the appropriate buffer (pH 7.4 at 23° C.), and 30 ml were placed in each of 3 or 4 150×25 mm polystyrene culture dishes on a rotating shaker. A 200 μL aliquot of a 10 mM solution of 7-chloro-4-hydroxy-2-quinoline carbonyl azide dissolved in DMSO was added and the solution was mixed for 10 min in the dark. […]
Cortical membranes were photolabeled with 7-chloro-4-hydroxy-2-quinoline as described in Example II, section E. Protein concentration of this preparation was determined using the BCA protein assay kit (Pierce, Rockford, Ill.). […]
Gels were removed and fluorescent bands visualized and recorded using a transilluminator (Fotodyne, New Berlin, Wis.) fitted with four 366nm UV bulbs (15 watts). […]

For the next data set, the system named is glycine modulatory site. Conditions: Kemp et al., 1988; cited from earlier work.
The target in data set [3] is T1, strychnine-insensitive glycine site associated with the NMDA receptor/channel complex. The settings on record: read-out: K1 at the glycine site (reported); Fletcher and Lodge, 1988; cited from earlier work.
For data set [4], the system named is NMDA-mediated neuronal response. The settings on record: glycine-reversible; Fletcher and Lodge, 1988; cited from earlier work.
[5] abbreviates: tissue treated with 7-chloro-4-hydroxyquinaldic acid and exposed to UV light.

Structures are written as SMILES. Several values for one entry are separate records, joined by “and”; a condition that tells them apart may be missing. Equal entries are not always repeated. Where two headings read alike, the source gives them in different places.

`[N-]=[N+]=NC(=O)c1cc(O)c2ccc(Cl)cc2n1` [7-chloro-4-hydroxy-2-quinoline carbonyl azide]: the Ki in data set [1] came to 2.4 ± 0.2 µM; on NMDA recognition site (n=5, mean ± S.E.M., read-out: K1 for the NMDA site) it was 101 ± 12 µM. Further, in data set [1] (azide relative to 7-chloro-4-hydroxyquinaldic acid), the “decrease in the apparent affinity for the 3H-glycine binding site on introduction of an azido group” value came to 5 fold. Moreover, in data set [1] (rat cortical membranes, red light), the “mode of displacement of 3H-glycine binding” value is recorded as “apparently competitive”. In addition, in data set [1] (rat cortical membranes), the “Hill slope (nH), displacement of 3H-glycine binding” value was found to be 0.90±0.08. For the same compound, the “selectivity for the 3H-glycine binding site” value in data set [1] (relative to the NMDA recognition site labeled by 3H-L-glutamate) is reported as “selective affinity for the ^3 H-glycine binding site relative to the NMDA recognition site”. Also, the “mode of inhibition of glycine action on 3H-TCP binding, non-photolyzed” value in data set [2] (non-photolyzed azide) is given as “competitive antagonism of the actions of glycine”. Also, the inhibition at 10 µM in data set [2] (read-out: decrease of 3H-TCP binding in the absence of added glycine) was found to be 70%. The “mode of inhibition of glycine-enhanced 3H-TCP binding, UV irradiated” value in data set [2] (tissue UV irradiated in the presence of azide) is “distinctly non-competitive inhibition of glycine-enhanced ^3 H-TCP binding”. Further, the “displacement of NMDA-specific 3H-L-glutamate binding” value in the data set on NMDA recognition site (rat cortical membranes, FIG. 2B) is listed as “less than 10%”. The “solubility in polar solutions” value in the data set “Solubility” was “limited solubility”. Besides, the “fluorescent bands on SDS polyacrylamide gel after photolabeling” value in the data set with NMDA receptor is listed as “two distinct fluorescent bands”.

Turning to `O=C(O)c1cc(O)c2ccc(Cl)cc2n1` [7-chloro-4-hydroxyquinaldic acid], the “activity at the glycine modulatory site” value with glycine modulatory site is “selective antagonist of the glycine modulatory site”. The same compound displayed a Ki in data set [1] of 0.49 ± 0.05 µM. Moreover, in data set [1] (rat cortical membranes), the “Hill slope (nH), displacement of 3H-glycine binding” value worked out at 0.74±0.03. Further, in data set [2] (setting [5]), the “reduction of 3H-TCP binding in the absence of added glycine” value turned out to be 100% and the “rightward parallel shift of the glycine concentration-response curve” value was 4 fold.

As for `NC1CCN(O)C1=O` (stereo not drawn) [HA-966, 1-hydroxy-3-aminopyrrolidone-2], in data set [3], the Ki is about 5 µM. The “effect on NMDA-mediated neuronal response” value in data set [4] is “reduce NMDA-mediated neuronal response in a glycine-reversible manner”.

On to `NCC(=O)O` [glycine], for which the “slope of glycine concentration-response, 3H-TCP binding” value in data set [2] was 1.02 and 0.93 and 1.15. Also, the Emax in data set [2] (read-out: maximal increase of 3H-TCP binding by glycine) came out at 150%.

Source of the values: US5344922A, “4-hydroxyquinaldic acid derivatives” (priority 1992, dated 1994).
